Measured values reported in patent US10189816B2, “Substituted pyridines as inhibitors of human immunodeficiency virus replication” (priority 2015, dated 2019).
Like-named read-outs stand apart in the source and are kept apart here.

Tested on: NL-RLuc virus
Assay: Inhibition of HIV replication (NL-RLuc reporter virus in MT-2 cells, luciferase readout)
Format: cell-based
Conditions: Human immunodeficiency virus 1, MT2, 120 h
In short: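 MT-2 cells infected with NL4-3-derived NL-RLuc reporter virus (Renilla luciferase replacing part of nef) with serial compound dilutions, RPMI 1640 + 10% FBS; 5 days. Growth by luciferase; EC50 from median effect equation, ≥2 experiments.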

Compound | EC50 (read-out: Activity) | EC50 (read-out: EC50 μM)
Cc1ccc(C)c(CN2CCc3cc(-c4c(C)nc(C)c([C@H](OC(C)(C)C)C(=O)O)c4N4CCC(C)(C)CC4)ccc3C2)c1 [Compound 29, (S)-2-(tert-butoxy)-2-(5-(2-(2,5-dimethylbenzyl)-1,2,3,4-tetrahydroisoquinolin-6-yl)-4-(4,4-dimethylpiperidin-1-yl)-2,6-dimethylpyridin-3-yl)acetic acid] | < 0.1 µM | 
Cc1ccc(CN2CCc3cc(-c4c(C)nc(C)c([C@H](OC(C)(C)C)C(=O)O)c4N4CCC(C)(C)CC4)ccc3C2)cc1Cl [Compound 132, (S)-2-(tert-butoxy)-2-(5-(2-(3-chloro-4-methylbenzyl)-1,2,3,4-tetrahydroisoquinolin-6-yl)-4-(4,4-dimethylpiperidin-1-yl)-2,6-dimethylpyridin-3-yl)acetic acid] | < 0.1 µM | 
Cc1ccccc1CN1CCc2cc(-c3c(C)nc(C)c([C@H](OC(C)(C)C)C(=O)O)c3N3CCC(C)(C)CC3)ccc2C1 [Compound 4, (S)-2-(tert-butoxy)-2-(4-(4,4-dimethylpiperidin-1-yl)-2,6-dimethyl-5-(2-(2-methylbenzyl)-1,2,3,4-tetrahydroisoquinolin-6-yl)pyridin-3-yl)acetic acid] | < 0.1 µM | 
Cc1nc(C)c([C@H](OC(C)(C)C)C(=O)O)c(N2CCC(C)(C)CC2)c1-c1ccc2c(c1)CCN(Cc1ccc(F)cc1Cl)C2 [Compound 35, (S)-2-(tert-butoxy)-2-(5-(2-(2-chloro-4-fluorobenzyl)-1,2,3,4-tetrahydroisoquinolin-6-yl)-4-(4,4-dimethylpiperidin-1-yl)-2,6-dimethylpyridin-3-yl)acetic acid] | < 0.1 µM | 
Cc1nc(C)c([C@H](OC(C)(C)C)C(=O)O)c(N2CCC(C)(C)CC2)c1-c1ccc2c(c1)CCN(Cc1ccc(C(C)(C)C)cc1)C2 [Compound 27, (S)-2-(tert-butoxy)-2-(5-(2-(4-(tert-butyl)benzyl)-1,2,3,4-tetrahydroisoquinolin-6-yl)-4-(4,4-dimethylpiperidin-1-yl)-2,6-dimethylpyridin-3-yl)acetic acid] | < 0.1 µM | 
Cc1nc(C)c([C@H](OC(C)(C)C)C(=O)O)c(N2CCC(C)(C)CC2)c1-c1ccc2c(c1)CCN(Cc1cc(F)c(F)c(F)c1)C2 [Compound 34, (S)-2-(tert-butoxy)-2-(4-(4,4-dimethylpiperidin-1-yl)-2,6-dimethyl-5-(2-(3,4,5-trifluorobenzyl)-1,2,3,4-tetrahydroisoquinolin-6-yl)pyridin-3-yl)acetic acid] | < 0.1 µM | 
Cc1nc(C)c([C@H](OC(C)(C)C)C(=O)O)c(N2CCC(C)(C)CC2)c1-c1ccc2c(c1)CCN(Cc1cc(F)cc(C(F)(F)F)c1)C2 [Compound 68, (S)-2-(tert-butoxy)-2-(4-(4,4-dimethylpiperidin-1-yl)-5-(2-(3-fluoro-5-(trifluoromethyl)benzyl)-1,2,3,4-tetrahydroisoquinolin-6-yl)-2,6-dimethylpyridin-3-yl)acetic acid] | < 0.1 µM | 
COc1ccc(CN2CCc3cc(-c4c(C)nc(C)c([C@H](OC(C)(C)C)C(=O)O)c4N4CCC(C)(C)CC4)ccc3C2)cc1Cl [Compound 137, (S)-2-(tert-butoxy)-2-(5-(2-(3-chloro-4-methoxybenzyl)-1,2,3,4-tetrahydroisoquinolin-6-yl)-4-(4,4-dimethylpiperidin-1-yl)-2,6-dimethylpyridin-3-yl)acetic acid] | < 0.1 µM | 
Cc1ccc(F)cc1CN1CCc2cc(-c3c(C)nc(C)c([C@H](OC(C)(C)C)C(=O)O)c3N3CCC(C)(C)CC3)ccc2C1 [Compound 47, (S)-2-(tert-butoxy)-2-(4-(4,4-dimethylpiperidin-1-yl)-5-(2-(5-fluoro-2-methylbenzyl)-1,2,3,4-tetrahydroisoquinolin-6-yl)-2,6-dimethylpyridin-3-yl)acetic acid] | < 0.1 µM | 
Cc1ccc(CN2CCc3cc(-c4c(C)nc(C)c([C@H](OC(C)(C)C)C(=O)O)c4N4CCC(C)(C)CC4)ccc3C2)cc1 [Compound 5, (S)-2-(tert-butoxy)-2-(4-(4,4-dimethylpiperidin-1-yl)-2,6-dimethyl-5-(2-(4-methylbenzyl)-1,2,3,4-tetrahydroisoquinolin-6-yl)pyridin-3-yl)acetic acid] | < 0.1 µM | 
Cc1nc(C)c([C@H](OC(C)(C)C)C(=O)O)c(N2CCC(C)(C)CC2)c1-c1ccc2c(c1)CCN(Cc1ccc3c(c1)CCCO3)C2 [Compound 155, (S)-2-(tert-butoxy)-2-(5-(2-(chroman-6-ylmethyl)-1,2,3,4-tetrahydroisoquinolin-6-yl)-4-(4,4-dimethylpiperidin-1-yl)-2,6-dimethylpyridin-3-yl)acetic acid] | < 0.1 µM | 
Cc1nc(C)c([C@H](OC(C)(C)C)C(=O)O)c(N2CCC(C)(C)CC2)c1-c1ccc2c(c1)CCN(Cc1cc(F)cc(F)c1F)C2 [Compound 96, (S)-2-(tert-butoxy)-2-(4-(4,4-dimethylpiperidin-1-yl)-2,6-dimethyl-5-(2-(2,3,5-trifluorobenzyl)-1,2,3,4-tetrahydroisoquinolin-6-yl)pyridin-3-yl)acetic acid] | < 0.1 µM | 0.003 µM
COc1cc(F)ccc1CN1CCc2cc(-c3c(C)nc(C)c([C@H](OC(C)(C)C)C(=O)O)c3N3CCC(C)(C)CC3)ccc2C1 [Compound 117, (S)-2-(tert-butoxy)-2-(4-(4,4-dimethylpiperidin-1-yl)-5-(2-(4-fluoro-2-methoxybenzyl)-1,2,3,4-tetrahydroisoquinolin-6-yl)-2,6-dimethylpyridin-3-yl)acetic acid] | < 0.1 µM | 
COc1ccc(Cl)cc1CN1CCc2cc(-c3c(C)nc(C)c([C@H](OC(C)(C)C)C(=O)O)c3N3CCC(C)(C)CC3)ccc2C1 [Compound 99, (S)-2-(tert-butoxy)-2-(5-(2-(5-chloro-2-methoxybenzyl)-1,2,3,4-tetrahydroisoquinolin-6-yl)-4-(4,4-dimethylpiperidin-1-yl)-2,6-dimethylpyridin-3-yl)acetic acid] | < 0.1 µM | 
Cc1nc(C)c([C@H](OC(C)(C)C)C(=O)O)c(N2CCC(C)(C)CC2)c1-c1ccc2c(c1)CCN(Cc1cccc(OC(F)(F)F)c1)C2 [Compound 110, (S)-2-(tert-butoxy)-2-(4-(4,4-dimethylpiperidin-1-yl)-2,6-dimethyl-5-(2-(3-(trifluoromethoxy)benzyl)-1,2,3,4-tetrahydroisoquinolin-6-yl)pyridin-3-yl)acetic acid] | < 0.1 µM | 0.008 µM
Cc1nc(C)c([C@H](OC(C)(C)C)C(=O)O)c(N2CCC(C)(C)CC2)c1-c1ccc2c(c1)CCN(Cc1ccccc1OCC(C)C)C2 [Compound 153, (S)-2-(tert-butoxy)-2-(4-(4,4-dimethylpiperidin-1-yl)-5-(2-(2-isobutoxybenzyl)-1,2,3,4-tetrahydroisoquinolin-6-yl)-2,6-dimethylpyridin-3-yl)acetic acid] | < 0.1 µM | 
Cc1nc(C)c([C@H](OC(C)(C)C)C(=O)O)c(N2CCC(C)(C)CC2)c1-c1ccc2c(c1)CCN(Cc1cccc(C(=O)O)c1)C2 [Compound 10, (S)-3-((6-(5-(tert-butoxy(carboxy)methyl)-4-(4,4-dimethylpiperidin-1-yl)-2,6-dimethylpyridin-3-yl)-3,4-dihydroisoquinolin-2(1H)-yl)methyl)benzoic acid] | > 1 µM | 1.48 µM
Cc1cc(C)cc(CN2CCc3cc(-c4c(C)nc(C)c([C@H](OC(C)(C)C)C(=O)O)c4N4CCC(C)(C)CC4)ccc3C2)c1 [Compound 79, (S)-2-(tert-butoxy)-2-(5-(2-(3,5-dimethylbenzyl)-1,2,3,4-tetrahydroisoquinolin-6-yl)-4-(4,4-dimethylpiperidin-1-yl)-2,6-dimethylpyridin-3-yl)acetic acid] | < 0.1 µM | 
Cc1nc(C)c([C@H](OC(C)(C)C)C(=O)O)c(N2CCC(C)(C)CC2)c1-c1ccc2c(c1)CCN(Cc1ccc(Cl)cc1F)C2 [Compound 39, (S)-2-(tert-butoxy)-2-(5-(2-(4-chloro-2-fluorobenzyl)-1,2,3,4-tetrahydroisoquinolin-6-yl)-4-(4,4-dimethylpiperidin-1-yl)-2,6-dimethylpyridin-3-yl)acetic acid] | < 0.1 µM | 
Cc1cc(OC(C)C)cc(C)c1CN1CCc2cc(-c3c(C)nc(C)c([C@H](OC(C)(C)C)C(=O)O)c3N3CCC(C)(C)CC3)ccc2C1 [Compound 160, (S)-2-(tert-butoxy)-2-(4-(4,4-dimethylpiperidin-1-yl)-5-(2-(4-isopropoxy-2,6-dimethylbenzyl)-1,2,3,4-tetrahydroisoquinolin-6-yl)-2,6-dimethylpyridin-3-yl)acetic acid] | < 0.1 µM | 
Cc1nc(C)c([C@H](OC(C)(C)C)C(=O)O)c(N2CCC(C)(C)CC2)c1-c1ccc2c(c1)CCN(Cc1ccc(OC(F)(F)F)c(Cl)c1)C2 [Compound 104, (S)-2-(tert-butoxy)-2-(5-(2-(3-chloro-4-(trifluoromethoxy)benzyl)-1,2,3,4-tetrahydroisoquinolin-6-yl)-4-(4,4-dimethylpiperidin-1-yl)-2,6-dimethylpyridin-3-yl)acetic acid] | < 0.1 µM | 
Cc1nc(C)c([C@H](OC(C)(C)C)C(=O)O)c(N2CCC(C)(C)CC2)c1-c1ccc2c(c1)CCN(Cc1ccccc1OCCO)C2 [Compound 88, (S)-2-(tert-butoxy)-2-(4-(4,4-dimethylpiperidin-1-yl)-5-(2-(2-(2-hydroxyethoxy)benzyl)-1,2,3,4-tetrahydroisoquinolin-6-yl)-2,6-dimethylpyridin-3-yl)acetic acid] | < 0.1 µM | 0.012 µM
Cc1nc(C)c([C@H](OC(C)(C)C)C(=O)O)c(N2CCC(C)(C)CC2)c1-c1ccc2c(c1)CCN(Cc1cc(F)c(F)cc1F)C2 [Compound 49, (S)-2-(tert-butoxy)-2-(4-(4,4-dimethylpiperidin-1-yl)-2,6-dimethyl-5-(2-(2,4,5-trifluorobenzyl)-1,2,3,4-tetrahydroisoquinolin-6-yl)pyridin-3-yl)acetic acid] | < 0.1 µM | 
Cc1nc(C)c([C@H](OC(C)(C)C)C(=O)O)c(N2CCC(C)(C)CC2)c1-c1ccc2c(c1)CCN(Cc1cccc(F)c1)C2 [Compound 7, (S)-2-(tert-butoxy)-2-(4-(4,4-dimethylpiperidin-1-yl)-5-(2-(3-fluorobenzyl)-1,2,3,4-tetrahydroisoquinolin-6-yl)-2,6-dimethylpyridin-3-yl)acetic acid] | < 0.1 µM | 0.004 µM
